One may read the IC50 as the concentration that gives 50% inhibition.

One experiment deals with HLA-A*2402 (Homo sapiens, UniProt P04439, D101N/D140Y/D185E/E176V/E190D/F33S/G103R/G107R/I119L/I121M/I306V/K335N/L105A/L180Q/L300P/N151K/N90K/Q86E/Q94H/R106L/R138H/R89G/T104I/T345S/V100E/W191G/Y123F). Description: In vitro class I HLA binding assay (fluorescence polarization competition). As to conditions: allele A*2402. The method, boiled down:
(§1)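 Cell-free competition assay: HLA heat-treated 53°C for 15 min to strip endogenous peptides, then mixed with fluorescent high-affinity control peptide and test peptides for 72 h to equilibrium. Displacement read by fluorescence polarization as percent inhibition; IC50 derived from a concentration range.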
(Polarisation of emitted light reports the rotation of a fluorescent probe.)

The target of another experiment is HLA-A*0101 (Homo sapiens, UniProt P04439, A114D/A174V/A182V/D101N/D185E/E176A/E190D/L180R/Q94H/R68K/S129P/T187R/V100A/V91M/W191G). Description: biochemical. The format is binding. As to conditions: allele A*0101, fluorescence polarization competition; for IC50: read-out: IC50 (nM), in vitro HLA binding affinity. In outline: as §1
Another experiment deals with HLA-A*0301 (Homo sapiens, UniProt P04439). In words: biochemical. Type of experiment: binding. As to conditions: allele A*0301, fluorescence polarization competition; for IC50: read-out: IC50 (nM), in vitro HLA binding affinity. In outline:
as §1

A further experiment addresses HLA-A*0201 (Homo sapiens, UniProt P04439, D140Y/D185E/D98H/E176V/E277Q/G131W/G231S/I119V/I121R/I166T/I218V/L300P/L318F/N151K/N90K/P208A/P217A/Q86G/Q94H/R138H/R169H/T345S). In words: In vitro class I HLA binding assay (fluorescence polarization competition). The following applies: allele A*0201; fluorescence polarization competition; read-out: IC50 (nM), in vitro HLA binding affinity. The method, boiled down: as §1

[1] abbreviates: fluorescence polarization competition, read-out: IC50 (nM), in vitro HLA binding affinity.
The mark [2] stands for this setting: cell-free competition, fluorescence polarization at 72 hours, Non-binder = no dose-dependent inhibition, read-out: IC50.

Read-outs that look alike come from different tables or passages of the source. Where a SMILES comes first, the peptide text is derived from it.

`CC[C@H](C)[C@H](NC(=O)[C@H](Cc1ccc(O)cc1)NC(=O)[C@@H]1CCCN1)C(=O)N[C@@H](CO)C(=O)N[C@@H](CCCCN)C(=O)N[C@@H](Cc1ccc(O)cc1)C(=O)NCC(=O)N[C@@H](CC(N)=O)C(=O)N[C@@H](CCCCN)C(=O)N[C@@H](CC(C)C)C(=O)O` [RIPR_0664] (H-PYISKYGNKL-OH): the IC50 at HLA-A*2402 (setting [1]) came out at 180 nM.

Consider `CC[C@H](C)[C@H](N)C(=O)N[C@@H](CCCCN)C(=O)N[C@@H](CC(C)C)C(=O)N[C@@H](CC(N)=O)C(=O)N[C@H](C(=O)N[C@@H](Cc1c[nH]c2ccccc12)C(=O)N[C@@H](CCCNC(=N)N)C(=O)N[C@H](C(=O)N[C@@H](Cc1ccccc1)C(=O)O)[C@@H](C)O)[C@@H](C)CC` [RH5_442] (H-IKLNIWRTF-OH), for which the IC50 on HLA-A*2402 (setting [1]) was determined as 1420 nM.

On to `CC[C@H](C)[C@H](N)C(=O)N[C@@H](Cc1ccccc1)C(=O)N[C@@H](Cc1c[nH]cn1)C(=O)N[C@@H](Cc1c[nH]cn1)C(=O)N[C@@H](CC(C)C)C(=O)N[C@H](C(=O)N[C@@H](Cc1ccc(O)cc1)C(=O)N[C@H](C(=O)N[C@@H](CC(C)C)C(=O)O)C(C)C)[C@@H](C)CC` [RH5_493] (H-IFHHLIYVL-OH), for which the IC50 on HLA-A*2402 (setting [1]) came out at 9590 nM.

Take `CC(C)C[C@H](NC(=O)[C@@H]1CCCN1C(=O)[C@H](Cc1ccc(O)cc1)NC(=O)[C@@H](N)CCC(=O)O)C(=O)N[C@@H](Cc1c[nH]cn1)C(=O)N[C@@H](CCC(N)=O)C(=O)N[C@@H](CCC(=O)O)C(=O)N[C@@H](Cc1c[nH]cn1)C(=O)N[C@H](C(=O)N[C@@H](Cc1ccc(O)cc1)C(=O)O)[C@@H](C)O` [AMA1_052] (H-EYPLHQEHTY-OH): the IC50 on HLA-A*2402 (setting [1]) worked out at 999 nM.

As for `CC[C@H](C)[C@H](NC(=O)[C@H](CC(=O)O)NC(=O)[C@@H](N)CCC(=O)O)C(=O)N1CCC[C@H]1C(=O)N[C@@H](Cc1c[nH]cn1)C(=O)N[C@H](C(=O)N[C@@H](CC(N)=O)C(=O)N[C@@H](CCC(=O)O)C(=O)N[C@@H](Cc1ccccc1)C(=O)O)C(C)C` [AMA1_321] (H-EDIPHVNEF-OH), the IC50 on HLA-A*2402 (setting [1]) is 83000 nM.

`CC[C@H](C)[C@H](N)C(=O)N[C@@H](Cc1ccccc1)C(=O)N[C@@H](Cc1ccccc1)C(=O)N[C@@H](CC(N)=O)C(=O)N[C@@H](CC(N)=O)C(=O)N[C@@H](CCC(=O)O)C(=O)N[C@@H](CC(N)=O)C(=O)N[C@@H](CO)C(=O)N[C@H](C(=O)O)[C@@H](C)CC` [CYRPA_305] (H-IFFNNENSI-OH): the IC50 at HLA-A*2402 (setting [1]) amounted to 56.9 nM.

Consider `CC(C)C[C@H](NC(=O)[C@H](Cc1ccc(O)cc1)NC(=O)[C@@H](N)CCC(N)=O)C(=O)N[C@@H](CCCCN)C(=O)N[C@@H](CC(=O)O)C(=O)NCC(=O)NCC(=O)N[C@@H](Cc1ccccc1)C(=O)N[C@@H](C)C(=O)N[C@@H](Cc1ccccc1)C(=O)O` [AMA1_174] (H-QYLKDGGFAF-OH), for which the IC50 at HLA-A*2402 (setting [1]) worked out at 41.9 nM.

In the case of `CC(C)[C@H](NC(=O)[C@H](CCCNC(=N)N)NC(=O)[C@H](Cc1ccc(O)cc1)NC(=O)[C@H](CS)NC(=O)[C@H](CO)NC(=O)[C@@H](NC(=O)[C@H](Cc1ccc(O)cc1)NC(=O)[C@H](C)N)C(C)C)C(=O)N[C@@H](CO)C(=O)N[C@@H](Cc1ccccc1)C(=O)O` [RIPR_0412] (H-AYVSCYRVSF-OH), the IC50 at HLA-A*2402 (setting [1]) is 56.9 nM.

For `CC(C)C[C@H](NC(=O)[C@H](Cc1c[nH]cn1)NC(=O)[C@H](CCCCN)NC(=O)[C@H](Cc1ccc(O)cc1)NC(=O)[C@H](Cc1ccc(O)cc1)NC(=O)[C@H](CC(=O)O)NC(=O)[C@H](CC(C)C)NC(=O)[C@@H](N)Cc1ccccc1)C(=O)N[C@@H](CO)C(=O)N[C@@H](Cc1ccc(O)cc1)C(=O)O` [RH5_181] (H-FLDYYKHLSY-OH), the IC50 at HLA-A*0101 came to 646 nM. Also, at HLA-A*0301, the “IC50 (nM), in vitro HLA binding affinity” value is “Non-Binder”.

As to `CC(C)C[C@H](NC(=O)[C@H](CCCCN)NC(=O)[C@H](CCCCN)NC(=O)[C@H](CC(=O)O)NC(=O)[C@H](Cc1ccc(O)cc1)NC(=O)[C@H](CC(C)C)NC(=O)[C@H](CC(N)=O)NC(=O)[C@H](Cc1ccc(O)cc1)NC(=O)[C@@H](N)CCCNC(=N)N)C(=O)O` [EBA175_1316] (H-RYNLYDKKL-OH), the IC50 on HLA-A*2402 (setting [2]) came out at 172 nM.

`CC[C@H](C)[C@H](NC(=O)[C@H](CS)NC(=O)[C@H](CCC(=O)O)NC(=O)CNC(=O)[C@H](CCCNC(=N)N)NC(=O)[C@H](CO)NC(=O)[C@H](CO)NC(=O)[C@H](CCCNC(=N)N)NC(=O)[C@H](Cc1ccc(O)cc1)NC(=O)[C@@H](N)Cc1ccc(O)cc1)C(=O)O` [RIPR_0805] (H-YYRSSRGECI-OH): the IC50 at HLA-A*2402 (setting [1]) stood at 175 nM.

As to `CC[C@H](C)[C@H](NC(=O)[C@@H](NC(=O)[C@H](Cc1ccccc1)NC(=O)[C@@H](N)CC(=O)O)C(C)C)C(=O)N[C@H](C(=O)N1CCC[C@H]1C(=O)N[C@@H](Cc1c[nH]cn1)C(=O)N[C@@H](Cc1ccc(O)cc1)C(=O)N[C@H](C(=O)N[C@@H](Cc1ccccc1)C(=O)O)[C@@H](C)O)[C@@H](C)CC` [RH5_172] (H-DFVIIPHYTF-OH), at HLA-A*2402 (setting [1]), the IC50 worked out at 289 nM.

As for `CC[C@H](C)[C@H](NC(=O)[C@H](CCCCN)NC(=O)[C@H](CC(N)=O)NC(=O)[C@H](CCC(=O)O)NC(=O)[C@H](C)NC(=O)[C@H](CCCCN)NC(=O)[C@@H](NC(=O)[C@H](CO)NC(=O)[C@H](Cc1ccc(O)cc1)NC(=O)CN)[C@@H](C)O)C(=O)O` [EBA175_0255] (H-GYSTKAENKI-OH), on HLA-A*2402 (setting [2]), the IC50 stood at 1840 nM.

In the case of `CC[C@H](C)[C@H](NC(=O)[C@H](CO)NC(=O)[C@H](CC(N)=O)NC(=O)[C@H](Cc1ccc(O)cc1)NC(=O)[C@@H](N)CO)C(=O)N[C@@H](Cc1ccc(O)cc1)C(=O)N[C@@H](Cc1c[nH]cn1)C(=O)N[C@@H](CCCCN)C(=O)N[C@@H](CO)C(=O)O` [RH5_189] (H-SYNSIYHKS-OH), the IC50 on HLA-A*2402 (setting [1]) is 57700 nM.

In the case of `C[C@@H](O)[C@H](NC(=O)[C@@H](N)CO)C(=O)N[C@@H](CS)C(=O)N[C@@H](Cc1ccc(O)cc1)C(=O)NCC(=O)N[C@@H](CC(N)=O)C(=O)N[C@@H](CCCNC(=N)N)C(=O)N[C@@H](Cc1ccccc1)C(=O)N[C@@H](CC(N)=O)C(=O)N[C@@H](Cc1ccc(O)cc1)C(=O)O` [RIPR_0648] (H-STCYGNRFNY-OH), the IC50 on HLA-A*0101 was found to be 54000 nM. On HLA-A*0301, the “IC50 (nM), in vitro HLA binding affinity” value was “Non-binder”.

On to `CC[C@H](C)[C@H](NC(=O)[C@H](Cc1ccccc1)NC(=O)[C@@H](N)CC(C)C)C(=O)N1CCC[C@H]1C(=O)N[C@@H](CO)C(=O)N[C@@H](Cc1c[nH]cn1)C(=O)N[C@@H](CC(N)=O)C(=O)N[C@@H](CO)C(=O)N[C@@H](Cc1ccccc1)C(=O)O` [RH5_098] (H-LFIPSHNSF-OH), for which the IC50 at HLA-A*2402 (setting [1]) stood at 141 nM.

On to `CC[C@H](C)[C@H](NC(=O)[C@@H](N)CO)C(=O)N[C@@H](Cc1ccc(O)cc1)C(=O)N[C@@H](Cc1c[nH]cn1)C(=O)N[C@@H](CCCCN)C(=O)N[C@@H](CO)C(=O)N[C@@H](CO)C(=O)N[C@H](C(=O)N[C@@H](Cc1ccc(O)cc1)C(=O)O)[C@@H](C)O` [RH5_192] (H-SIYHKSSTY-OH), for which the “IC50 (nM), in vitro HLA binding affinity” value at HLA-A*0101 is recorded as “Non-Binder”. Moreover, the IC50 on HLA-A*0301 is 5930 nM.

As to `CC[C@H](C)[C@H](NC(=O)[C@H](Cc1ccc(O)cc1)NC(=O)[C@H](CCC(=O)O)NC(=O)[C@H](CC(=O)O)NC(=O)[C@H](CC(N)=O)NC(=O)[C@H](CC(C)C)NC(=O)[C@@H](N)[C@@H](C)O)C(=O)N[C@H](C(=O)N[C@@H](CO)C(=O)N[C@@H](Cc1ccc(O)cc1)C(=O)O)C(C)C` [CYRPA_285] (H-TLNDEYIVSY-OH), the IC50 on HLA-A*0101 was found to be 213000 nM; on HLA-A*0301, 304000 nM.

With `CSCC[C@H](NC(=O)[C@H](CCSC)NC(=O)[C@@H](N)CCCCN)C(=O)N[C@@H](CC(=O)O)C(=O)N[C@@H](CCC(=O)O)C(=O)N[C@@H](Cc1ccc(O)cc1)C(=O)N[C@@H](CC(N)=O)C(=O)N[C@H](C(=O)N[C@@H](CCCCN)C(=O)N[C@@H](CCCCN)C(=O)O)[C@@H](C)O` [RH5_302] (H-KMMDEYNTKK-OH), the results for the IC50 at HLA-A*0201 and on HLA-A*0301 were 511000 nM and 8480 nM, respectively.

In the case of `CC[C@H](C)[C@H](NC(=O)[C@H](CO)NC(=O)[C@@H](N)CC(N)=O)C(=O)N[C@@H](Cc1ccc(O)cc1)C(=O)N[C@@H](Cc1c[nH]cn1)C(=O)N[C@@H](CCCCN)C(=O)N[C@@H](CO)C(=O)N[C@@H](CO)C(=O)N[C@H](C(=O)N[C@@H](Cc1ccc(O)cc1)C(=O)O)[C@@H](C)O` [RH5_191] (H-NSIYHKSSTY-OH), at HLA-A*0101, the “IC50 (nM), in vitro HLA binding affinity” value is reported as “Non-Binder”. At HLA-A*0301, the IC50 was 101000 nM.

In the case of `CC[C@H](C)[C@H](N)C(=O)N[C@@H](Cc1c[nH]c2ccccc12)C(=O)N[C@@H](CCCNC(=N)N)C(=O)N[C@H](C(=O)N[C@@H](Cc1ccccc1)C(=O)N[C@@H](CCC(N)=O)C(=O)N[C@@H](CCCCN)C(=O)N[C@@H](CC(=O)O)C(=O)N[C@@H](CCC(=O)O)C(=O)N[C@@H](CC(C)C)C(=O)O)[C@@H](C)O` [RH5_446] (H-IWRTFQKDEL-OH), the IC50 on HLA-A*2402 (setting [1]) stood at 625 nM.

Regarding RTFKKMMDEY [RH5_298], the “IC50 (nM), in vitro HLA binding affinity” value at HLA-A*0101 and at HLA-A*0301 was “Non-Binder” each time.

The values are drawn from article PMC8294059, “Identification and Immune Assessment of T Cell Epitopes in Five Plasmodium falciparum Blood Stage Antigens to Facilitate Vaccine Candidate Selection and Optimization” (Frontiers in Immunology, 2021).
